# Assay: polymorphic stability on drying or wetting (XRPD, Karl Fischer water content)
# Assay type: physicochemical
# Details: water content between 0.5% and 7% (Karl Fisher)
# Excerpt: Advantageously, the pseudo-crystalline rifaximin is stable at a water content comprised between 0.5% and 7%. In contrast to the rifaximin of the state of the art, transition from one polymorphic form to another is not observed when the water content varies between 0.5% and 7%. […] Water content is typically assessed according to the Karl Fisher method.
# In the processes of the present invention, the absence of salts (methylaminopyridine hydrochloride and ascorbic acid salts) and the final pH of the solution yield a pseudo-crystalline form of rifaximin which is stable at various water contents comprised between 0.5% and 7%. This pseudo-crystalline form is stable upon drying or wetting with water and transition between different polymorphic forms depending on the water content is not observed. The rifaximin obtained by the process of the present invention is polymorphically stable.
# Advantageously, the X-ray diffractogramm of the rifaximin according to the present invention is not modified when the water content varies between 0.5% and 7%.
# The diffractograms have been carried out by using the SIEMENS D5000 instrument and under the following working conditions: • Radiation used: Kα of Copper (λ=1.5406 Å) • Tension of the generator: KV 35 • Current of the generator: 30 mA • Starting and final angular 2θ value: from 2.0° to 60.0°.
structure (smiles),measurement,value
"CO[C@H]1/C=C/O[C@@]2(C)Oc3c(C)c(O)c4c(O)c(c5c(nc6cc(C)ccn65)c4c3C2=O)NC(=O)/C(C)=C\C=C\[C@H](C)[C@H](O)[C@@H](C)[C@@H](O)[C@@H](C)[C@H](OC(C)=O)[C@@H]1C [pseudo-crystalline rifaximin, rifaximin]",polymorphic stability (transition to another polymorphic form),stable
